Values joined by “and” are separate entries in the source; they are usually repeats but may differ in a detail not shown here. Equal entries are not always repeated.
What was measured:
[1] = biological target: T1, Xanthine oxidase (XOD), febuxostat binding domain (Bos taurus, UniProt P80457); test: Affinity ultrafiltration LC-MS (UF-LC-MS) screening, febuxostat-masked vs unmasked XOD; conditions: peak area with vs without febuxostat preincubation of XOD; extract 2 mg/mL
T1 construct: purchased Sigma-Aldrich Co., Ltd. (St. Louis, MO, USA)
Method: Based on the variation in the chromatogram with and without febuxostat binding in the XOD, the binding degree was used to evaluate the febuxostat competitive capacity of compounds in celery seeds. The binding degree (BD) was calculated as follows: BD(%)=Af−Ano_f/Af×100%
Af and Ano_f represent the peak area of compounds in the chromatogram with and without preincubation with febuxostat, respectively.
Identification of potential XOD inhibitors from celery seed extract was performed using UF–LC–MS according to a previous study with modification. To prepare the XOD interaction solution, 250 μL of XOD (0.5 U/mL) was incubated with 50 μL of febuxostat (the XOD inhibitor, 500 μg/mL in 10% DMSO-PBS, masked group) to mask the druggable binding domain of XOD or 10% DMSO-PBS (vehicle control, unmasked group) at 37 °C for 45 min. The extract (50 μL at 2 mg/mL in methanol) was then added to the interaction solution for a further 45 min. After incubation, the mixtures were transferred to a 10 kDa molecule weight cut-off ultrafiltration filter and centrifuged at 14,500 rpm for 20 min. The membrane was washed 3 times with 450 μL ddH2O to remove the unbound molecules. […] The elution solution was then ultrafiltered in the new filter units as described above. The final products in the bottom of the filter units were analyzed using a HPLC–MS system.

[2] = biological target: T2, Xanthine oxidase (XOD) (Bos taurus, UniProt P80457); test: XOD activity assay (absorbance at 290 nm, xanthine substrate); format: biochemical; conditions: XOD 0.02 U/mL, xanthine 0.48 mM, 37 °C, OD 290 nm; read-out: IC50 of XOD inhibition
T2 construct: purchased Sigma-Aldrich Co., Ltd. (St. Louis, MO, USA)
Method: The inhibitory effects of compounds were determined in the XOD activity assay according to a previous report with minor modifications. Celery seed extracts or the “hit” compounds from the UF–LC–MS screening assay were dissolved in PBS and prepared for a series of test solutions using 2-fold serial dilutions. Test solutions (50 μL) were mixed with XOD (50 μL at 0.02 U/mL) and incubated at 37 °C for 5 min. This was followed by the addition of XOD substrate xanthine (150 μL at 0.48 mM) and further incubation at 37 °C for 30 min. The optical density (OD) of each tube was then measured at 290 nm. Percent XOD inhibition was calculated using the following formula: %=1−A1−A2/A3−A4×100 where A1 was the absorbance of the production with the sample and XOD, A2 was the absorbance of the production with the sample, A3 was the absorbance of the production with PBS and XOD, and A4 was the absorbance of the production with PBS.

T1 sequence (P80457 whole entry, the tested form may be a part): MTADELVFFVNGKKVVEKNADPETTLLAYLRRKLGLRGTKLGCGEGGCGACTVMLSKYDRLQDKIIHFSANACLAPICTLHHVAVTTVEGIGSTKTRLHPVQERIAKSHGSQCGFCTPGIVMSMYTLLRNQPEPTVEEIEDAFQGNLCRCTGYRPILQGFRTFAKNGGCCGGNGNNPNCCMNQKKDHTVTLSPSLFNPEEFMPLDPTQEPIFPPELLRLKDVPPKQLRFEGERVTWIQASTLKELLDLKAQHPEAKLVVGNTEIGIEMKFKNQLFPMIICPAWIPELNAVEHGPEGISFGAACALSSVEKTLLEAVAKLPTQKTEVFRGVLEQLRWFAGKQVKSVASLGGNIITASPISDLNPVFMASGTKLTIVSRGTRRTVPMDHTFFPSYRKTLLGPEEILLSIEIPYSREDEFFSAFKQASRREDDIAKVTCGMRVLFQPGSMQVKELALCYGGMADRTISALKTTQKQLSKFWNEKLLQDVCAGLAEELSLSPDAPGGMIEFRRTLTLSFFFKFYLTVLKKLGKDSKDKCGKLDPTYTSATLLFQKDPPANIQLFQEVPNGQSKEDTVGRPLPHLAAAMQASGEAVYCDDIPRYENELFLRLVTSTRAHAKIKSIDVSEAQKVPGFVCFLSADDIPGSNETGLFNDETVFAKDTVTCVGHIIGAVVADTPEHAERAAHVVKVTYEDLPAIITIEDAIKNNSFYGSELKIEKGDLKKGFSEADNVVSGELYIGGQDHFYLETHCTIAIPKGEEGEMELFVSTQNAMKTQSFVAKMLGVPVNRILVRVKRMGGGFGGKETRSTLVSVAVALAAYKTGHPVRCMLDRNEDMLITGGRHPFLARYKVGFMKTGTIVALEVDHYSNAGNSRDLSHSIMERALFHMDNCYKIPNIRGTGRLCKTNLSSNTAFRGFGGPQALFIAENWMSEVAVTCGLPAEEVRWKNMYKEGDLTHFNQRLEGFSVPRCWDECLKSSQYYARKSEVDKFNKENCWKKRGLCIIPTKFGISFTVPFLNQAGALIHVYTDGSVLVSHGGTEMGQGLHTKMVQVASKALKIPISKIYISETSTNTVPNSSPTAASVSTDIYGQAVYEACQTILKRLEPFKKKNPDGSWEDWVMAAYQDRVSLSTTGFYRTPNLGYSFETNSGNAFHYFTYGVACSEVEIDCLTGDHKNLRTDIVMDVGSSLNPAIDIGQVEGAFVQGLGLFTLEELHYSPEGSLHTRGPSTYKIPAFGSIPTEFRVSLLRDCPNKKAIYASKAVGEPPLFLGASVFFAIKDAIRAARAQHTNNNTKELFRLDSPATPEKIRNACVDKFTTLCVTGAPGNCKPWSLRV
T2 sequence (P80457 whole entry): as the sequence (P80457 whole entry, the tested form may be a part) above

SMILES | binding degree (BD) [1] [%] | IC50 [2]
O=c1cc(-c2ccc(O)c(O)c2)oc2cc(O[C@@H]3O[C@H](CO)[C@@H](O)[C@H](O)[C@H]3O[C@@H]3OC[C@](O)(CO)[C@H]3O)cc(O)c12 [Compound 9, Luteolin 7-O-apiosylglucoside] | 89.1 | 3140 µM
O=c1cc(-c2ccc(O)c(O)c2)oc2cc(O[C@@H]3O[C@H](CO)[C@@H](O)[C@H](O)[C@H]3O)cc(O)c12 [Compound 10, Luteolin 7-O-glucoside] | 95.9 | 976 µM
CCCC[C@H]1OC(=O)C2=C1CC[C@H](O)[C@H]2O [Compound 11, Senkyunolide J] | 50.5 | –
C[C@@]1(O)CO[C@@H](O[C@H]2[C@H](Oc3cc(O)c4c(=O)cc(-c5ccc(O)c(O)c5)oc4c3)O[C@H](COC(=O)CC(=O)O)[C@@H](O)[C@@H]2O)[C@@H]1O [Compound 14, Luteolin 7-O-malonyl-apiosylglucoside] | 93.6 | –
O=C(O)CC(=O)OC[C@H]1O[C@@H](Oc2cc(O)c3c(=O)cc(-c4ccc(O)c(O)c4)oc3c2)[C@H](O)[C@@H](O)[C@@H]1O [Compound 15, Luteolin 7-O-6′-malonyl glucoside] | 99.0 | 2020 µM
O=C(O)CC(=O)OC[C@H]1O[C@@H](Oc2cc(O)c3c(=O)cc(-c4ccc(O)cc4)oc3c2)[C@H](O[C@@H]2OC[C@](O)(CO)[C@H]2O)[C@@H](O)[C@@H]1O [Compound 19, 6″-Malonylapiin] | 63.2 | –
COc1cc(-c2cc(=O)c3c(O)cc(OC4OC(COC(=O)CC(=O)O)C(O)C(O)C4OC4OCC(O)(CO)C4O)cc3o2)ccc1O (stereo not drawn) [Compound 20, Chrysoeriol 7-O-6″-malonyl apiosylglucoside] | 52.0 | –
O=c1cc(-c2ccc(O)c(O)c2)oc2cc(O)cc(O)c12 [Compound 21, Luteolin] | 97.8 | 69.2 µM
O=c1cc(-c2ccc(O)cc2)oc2cc(O)cc(O)c12 [Compound 24, Apigenin] | 95.5 | 93 µM and 92.6 µM
COc1cc(-c2cc(=O)c3c(O)cc(O)cc3o2)ccc1O [Compound 25, Chrysoeriol] | 96.7 | –
